For 1 compound, IC50 results are on record in BindingDB's records for doi:10.1016/j.bmcl.2005.05.109 (Merck Research Laboratories, 2005).

This assay in a line: Inhibition concentration (binding affinity) against […] melanocortin receptor 4 by displacement of [125I]NDP-alpha-MSH from the human receptors expressed in CHO cells.

As for `CN1C[C@H]2CC[C@@H]1[C@H](C(=O)N[C@H](Cc1ccc(F)cc1)C(=O)N1CCC(C(=O)NC(C)(C)C)(C3CCCCC3)CC1)C2` [(1R,4S,6R)-2-Methyl-2-aza-bicyclo[2.2.2]octane-6-carboxylic acid [(R)-2-(4-tert-butylcarbamoyl-4-cyclohexyl-piperidin-1-yl)-1-(4-fluoro-benzyl)-2-oxo-ethyl]-amide], the IC50 (commonly the midpoint of a concentration-inhibition curve) amounted to 7 µM.
